What was measured:
[1] = In vivo evaluation in rats (blood, urine and feces levels); design: species or system female Wistar rats; settings: for Compound in urine after intravenous injection: i.v.
Experimental: A solution of test compound in DMSO was injected slowly through the jugular vein (65 mg/kg) to a group of female Wistar rats (150-200 g), 1.00 ml blood samples were taken at various time intervals, mixed with 2.00 ml of ice cold acetonitrile, and placed in a freezer. When all samples had been collected, they were centrifuged and the supernatant analyzed by HPLC. In a separate experiment urine samples were collected after i.v. administration of the test compound. A solution of test compound in polyethylene glycol was given p.o. to a group of rats (0.25 g/kg) and blood samples analyzed as before. Also, urine and feces samples were analyzed after p.o. administration of the test compound.

[2] = system: ventricular arrhythmia; assay: Evaluation of antiarrhythmic activity in dogs (ouabain-induced ventricular arrhythmia); type: in vivo, dog; settings: for minimal effective dose: Canis lupus familiaris, iv, ouabain arrhythmia, i.v. infusion 0.5 mg/kg/min, read-out: Dose ± s.d. (dose of compound producing reversion to normal rhythm); for Duration of normal sinus rhythm after drug infusion: after end of i.v. infusion; for Dose required to produce reversion to normal rhythm relative to lidocaine / Duration of the effect relative to lidocaine: compared with lidocaine; for Arrhythmia activity in dogs: in words
Experimental: Dogs of either sex were anesthetized with pentabarbital sodium, 30 mg/kg, i.v. A lead II EKG was recorded and heart rate monitored on a Grass polygraph with appropriate signal treatment modules. […] After a 20 minute stabilization period during which fast paper speed record segments (100 mm/sec) were taken to assess EKG profile, a […] dose of ouabain was injected intravenously as bolus. This was followed by 5 mg/kg doses of ouabain i.v., every 10 minutes, until a ventricular arrthymias occured--at lest 50% ventricular or septal ectopic beats. This usually occurred after a total dose of about 60 mg/kg. After 10 min of sustained arrhythmia, the compound to be tested was given by i.v. in fusion at a rate of 0.5 mg/kg/min (2 ml/min, flow-rate). The infusion was maintained until a normal sinus node heart rhythm was noted. The infusion was stopped and the total dose of compound administered was determined. The length of time that the normal sinus rhythm persisted after the end of infusion of the compound was also determined.
In the table above, "dose" is dose of compound mg/kg producing reversion to normal rhythm. "Duration" is duration in minutes of normal sinus rhythm after drug infusion.

[3] = system: esterase (carboxylic-ester hydrolase, EC 3.1.1.1); assay: Stability toward purified esterases: esterase (carboxylic-ester hydrolase, EC 3.1.1.1); type: in vitro ADME, porcine; settings: pH 8.0, 37.0° C., over 2-3 hours
Experimental: (§1) The effect of esterase (carboxylic-ester hydrolase, EC 3.1.1.1) and butyryl cholinesterase (EC 3.1.1.8), isolated from porcine liver and horse serum, was tested as follows: A portion of the enzyme and […] of a standard solution of the compound in methanol were added to 2.50 ml of 0.05M TRIS buffer, pH 8.0, previously equilibrated to 37.0° C., resulting in solutions containing 5.2 units of enzyme and 0.4 mg of compound in one ml. Aliquots ([…]) were injected into the column at various intervals.

[4] = Estimation of LD50 in mice; settings: mouse, in vivo, ip, intraperitoneal in dimethylsulfoxide, observed for 48 hr
From the text: The LD50 in white CD-1 male mice (average mass, 24.0±0.1 g) was estimated.

[5] = Stability toward human plasma; type: in vitro ADME; settings: 37.0° C., over 2-3 hours
Experimental: The freshly collected human plasma was stored in a refrigerator and used within 1 week from the date it was collected. A portion of […] at a standard methanol solution of the compound to be tested was mixed with 7.0 ml of plasma, previously equilibrated to 37.0° C., to result in an initial concentration of 0.2 mg/ml. Samples of 1.0 ml were withdrawn from the test medium, mixed immediately with 4.0 ml of ice cold 95% ethanol, and placed in a freezer. When all samples had been collected, they were centrifuged and the supernatant analyzed by HPLC.

[6] = system: butyryl cholinesterase (EC 3.1.1.8); assay: Stability toward purified esterases: butyryl cholinesterase (EC 3.1.1.8); type: in vitro ADME, horse; settings: pH 8.0, 37.0° C., over 2-3 hours
Experimental: as §1

[7] = Metabolism in bovine liver microsomal preparations; type: in vitro ADME; settings: 37.0° C., pH 8.0, 1 mg/ml
Experimental: Two kg of minced bovine liver were mixed with 4 liters of homogenization medium (0.34M sucrose, 1 mM EDTA, and 5 mM TRIS-HCI buffer ph 7.5) and sieved through a screen. The sieved tissue was homogenized for 2 min in a Tekmar grinder. The homogenate was centrifuged successively at 980 g for 10 min and 10960 g for 10 min. The resulting supernatant was then centrifuged at 31300 g for 45 min. All procedures were carried out at 4° C. The microsomal pallet was suspended in an equal volume of 20 mM TRIS-HCI buffer pH 8.0 containing 1 mM EDTA. Centrifugation of this suspension at 123000 g for 90 min gave a pallet which is referred to as the washed microsomes. This pallet could be stored frozen for months with little loss of activity.
The washed microsomes were mixed in a ratio of 1:2 (v/v) with 50 mM TRIS-HCI buffer ph 8.0. To 3.0 ml of this solution, previously equilibrated to 37.0° C., was added 0.2 ml of a standard solution of the compound to be tested resulting in an initial concentration of 1 mg/ml. Samples of 0.50 ml were withdrawn from the test medium, mixed immediately with 1.0 ml of ice cold 95% ethanol and place in a freezer. When all samples had been collected, they were centrifuged and the supernatant analyzed by HPLC.

[8] = intravenous, after uptake by highly perfused organs; cited from earlier work

| SMILES | Compound in urine after intravenous injection [1] | Unchanged compound in blood ([1]; p.o.) | Unchanged compound in urine ([1]; p.o.) | Absorption after oral administration ([1]; p.o. 0.25 g/kg) | dose excreted ([1]; rat, feces, po, 250 mg/kg, p.o., read-out: Unchanged compound in feces) [%] | minimal effective dose [2] [mg/kg] | Duration of normal sinus rhythm after drug infusion [2] [min] | Dose required to produce reversion to normal rhythm relative to lidocaine [2] | Duration of the effect relative to lidocaine [2] | Arrhythmia activity in dogs [2] | Stability / degradation by esterase [3] | LD50 at 48 h [4] [mg/kg] | Stability / degradation in human plasma [5] | Stability / degradation by butyryl cholinesterase [6] | Hydrolysis by bovine liver microsomes [7] | Bioavailability ([1]; p.o.) | Unchanged compound in feces (in words) ([1]; p.o.) | Part of the dose left in blood [8] |
| --- | --- | --- | --- | --- | --- | --- | --- | --- | --- | --- | --- | --- | --- | --- | --- | --- | --- | --- |
| Cc1cccc(C)c1NC(=O)C[S+](C)C [Example 2, 2-Dimethylsulfonic-N-(2,6-dimethylphenyl)acetamide iodide] | Only minimal amounts | significant amounts of the unchanged compound could be detected in the blood | nothing in the urine | absorbed slowly | ~7 | 3.82 ± 0.85 | > 15 | somewhat larger doses were required | much longer | considerable arrhythmia activity | no degradation could be observed over a period of 2-3 hours | 300 | no degradation could be observed over a period of 2-3 hours | no degradation could be observed over a period of 2-3 hours | hydrolyzed very slowly | – | – | – |
| CCSCC(=O)Nc1c(C)cccc1C [Example 5, 2-Ethylthio-N-(2,6-dimethylphenyl)acetamide] | Only minimal amounts | – | no unchanged compound could be detected in the feces or the urine | – | – | 2.5 ± 2.8 | > 20 | somewhat larger doses were required | much longer | considerable arrhythmia activity | no degradation could be observed over a period of 2-3 hours | 2100 | no degradation could be observed over a period of 2-3 hours | no degradation could be observed over a period of 2-3 hours | – | good bioavailability | no unchanged compound could be detected in the feces or the urine | – |
| CCN(CC)CC(=O)Nc1c(C)cccc1C [lidocaine, reference compound] | – | – | – | – | – | 1.84 ± 0.32 | 1.23 ± 0.37 | – | – | – | – | – | – | – | – | – | – | about 15% |

Reference: patent US4859707A, “Sulfur-substituted phenylacetamides” (Key Pharmaceuticals, Inc., priority 1983, dated 1989)
